Here are results for 12 compounds from patent publication US5409952A, “Heterocyclic compounds: 2-styryl-4H-1-benzopyran-4-ones” (Adir et Compagnie, priority 1990, dated 1995).

Data set [1] has as its system HL-60 cells. As to the kind of experiment: Cell differentiation of HL-60 cells (NBT reduction). The class given is cell-based, human. The following applies: HL-60, 20 μM, six days. How it is done:
The cell differentiation is determined according to the method of J. M. GALLUP and al. (Proceedings of the Society for Experimental Biology and Medecine, 186, 269-274, 1987).
HL-60 cells (human promyclocyte) (2×10^5 cells/ml) are incubated during six days with the tested compounds. An aliquot (0,5 ml) of cells is than incubated with 0,5 ml of a 0,2% NBT (Nitroblue Tetrazolium) solution and […] of PMA (phorbol ester) for 20 min at 37° C.
Cells are washed with PBS and numbered under microscope, Table VII lists the percentage of cells containing cristals of reduced NBT (i,e, % of positive NBT cells) at the concentration of 20 μM.

Data set [2] concerns L1210 cell line. Briefly: Growth inhibition of cell line L1210 (tritiated thymidine incorporation). It is filed as cell-based, mice. The following applies: Mus musculus, L1210, 24 hours, read-out: IC50, concentration that inhibits cell growth by 50%. Here is the method: The growth of this leukaemia cell line in mice is assessed by the capacity of the cells to incorporate tritiated thymidine. The rate of incorporation is measured 24 hours after the introduction of the test compound into the culture medium.
Table V lists, for each compound, the concentration that inhibits cell growth by 50%.
(In general: Incorporation of labelled thymidine or its analogues reports DNA synthesis.)

Data set [3] concerns colon C38 adenocarcinoma. Briefly: Anti-tumour activity on colon C38 adenocarcinoma in vivo. The arrangement: species or system mice. The following applies: colon 38 fragment s.c.; i.p. on 2nd and 4th days after implantation; day 20. Here is the method:
After subcutaneous implantation of a fragment of tumour (colon 38) in the axillary region, on the 2nd and 4th days after implantation a solution of the test compound is administered to a group of animals by the intraperitoneal route. On the 20th day the animals are sacrificed and the tumour volume is ascertained.
The % T/C ratio is calculated as follows: [formula]

Data set [4] in a line: Hypervitamin A toxicity. Conditions: result in words.
The conditions of data set [5]: patent EP 237166; isolated from an alga; cited from earlier work.

With `COC(=O)c1c(OC)cc2oc(/C=C/c3ccccc3)cc(=O)c2c1OC` [Example 1, Methyl 5,7-Dimethoxy-4-Oxo-2-Styryl-4H-1-Benzopyran-6-Carboxylate], the “% of positive NBT cells” value in data set [1] stood at 52%. Also, the IC50 in data set [2] was found to be 12.5 µM. Further, in data set [3], the T/C % was 56% and the “Tumour volume after 20 days” value stood at 573 mm3.
For the compound `COC(=O)c1c(OC)cc2oc(/C=C/c3ccc(OC)c(OC)c3)cc(=O)c2c1OC` [Example 2, Methyl 5,7-Dimethoxy-4-Oxo-2-(3,4-Dimethoxy-Styryl) -4H-1-Benzopyran-6-Carboxylate], the “% of positive NBT cells” value in data set [1] is 85%. Also, the IC50 in data set [2] was 6.4 µM. Further, in data set [3], the T/C % came to 35% and the “Tumour volume after 20 days” value is on record as 356 mm3.
As to `COC(=O)c1c(OC)cc2oc(/C=C/c3cc(OC)c(OC)c(OC)c3)cc(=O)c2c1OC` [Example 3, Methyl 5,7-Dimethoxy-4-Oxo-2-(3,4,5-Tri-Methoxystyryl) -4H-1-Benzopyran-6-Carboxylate], the “% of positive NBT cells” value in data set [1] turned out to be 59%. The IC50 in data set [2] came out at 5 µM.
For the compound `COC(=O)c1ccc(/C=C/c2cc(=O)c3c(OC)c(C(=O)OC)c(OC)cc3o2)cc1` [Example 4, Methyl 5,7-Dimethoxy-2-(4-Methoxycarbonyl-Styryl)-4H -1-Benzopyran-6-Carboxylate], in data set [2], the IC50 was found to be 12 µM.
The same measure, in the same setting: the result for `COc1ccc(/C=C/c2cc(=O)c3c(OC)c4ccoc4cc3o2)cc1OC` [Example 7, 4-Methoxy-7-(3,4-Dimethoxystyryl)-5H -Furo[3,2-g]Benzopyran-5-One] reads 8.5 µM; that for `Cc1c(/C=C/c2ccccc2)oc2c(C)cccc2c1=O` [Example 17, 3,8-Dimethyl-2-Styryl-4H-1-Benzopyran-4-One], 7.5 µM; that for `C=CCc1cccc2c(=O)cc(/C=C/c3ccccc3)oc12` [Example 18, 8-Allyl-2-Styryl-4H-1-Benzopyran-4-One], 5.85 µM.
For `C=CCc1cccc2c(=O)c(C)c(/C=C/c3ccccc3)oc12` [Example 19, 8-Allyl-3-Methyl-2-Styryl-4H-1-Benzopyran-4-One], the “% of positive NBT cells” value in data set [1] is recorded as 45%. In addition, the IC50 in data set [2] was found to be 6.6 µM.
As for `C=CCc1cc(OC)cc2c(=O)cc(/C=C/c3ccccc3)oc12` [Example 20, 6-Methoxy-8-Allyl-2-Styryl-4H-1-Benzopyran-4-One], the IC50 in data set [2] amounted to 3 µM.
Still for that read-out and setting: the result for `CCCc1cccc2c(=O)cc(/C=C/c3ccccc3)oc12` [Example 21, 8-Propyl-2-Styryl-4H-1-Benzopyran-4-One] reads 7.25 µM.
With `CC1=C(/C=C/C(C)=C/C=C/C(C)=C/C(=O)O)C(C)(C)CCC1` [Retinoic acid, reference compound], in data set [4], the “Hypervitamin A toxicity” value is reported as “causing hypervitamin A toxicity”. Further, in data set [2], the IC50 is 20.1 µM.
hormo-thamnione: the Cytotoxic properties entry in data set [5] is given as “cytotoxic properties”.
